According to US10544102B2, “Benzazepine dicarboxamide compounds with secondary amide function” (Hoffmann-La Roche Inc., priority 2017, dated 2020):

Columns and labels:
[1] = biological target: T1, human TLR8 (Homo sapiens, UniProt Q9NR97); assay: HEK-Blue human TLR8 cells NF-κB SEAP reporter assay; type: cell-based; conditions: stimulation for 20 hours, Quanti Blue 640 nm
T1 construct: host or cells: HEK-Blue human TLR8 cells (HEK293-derived reporter line)
T1 sequence (Q9NR97 27-1041): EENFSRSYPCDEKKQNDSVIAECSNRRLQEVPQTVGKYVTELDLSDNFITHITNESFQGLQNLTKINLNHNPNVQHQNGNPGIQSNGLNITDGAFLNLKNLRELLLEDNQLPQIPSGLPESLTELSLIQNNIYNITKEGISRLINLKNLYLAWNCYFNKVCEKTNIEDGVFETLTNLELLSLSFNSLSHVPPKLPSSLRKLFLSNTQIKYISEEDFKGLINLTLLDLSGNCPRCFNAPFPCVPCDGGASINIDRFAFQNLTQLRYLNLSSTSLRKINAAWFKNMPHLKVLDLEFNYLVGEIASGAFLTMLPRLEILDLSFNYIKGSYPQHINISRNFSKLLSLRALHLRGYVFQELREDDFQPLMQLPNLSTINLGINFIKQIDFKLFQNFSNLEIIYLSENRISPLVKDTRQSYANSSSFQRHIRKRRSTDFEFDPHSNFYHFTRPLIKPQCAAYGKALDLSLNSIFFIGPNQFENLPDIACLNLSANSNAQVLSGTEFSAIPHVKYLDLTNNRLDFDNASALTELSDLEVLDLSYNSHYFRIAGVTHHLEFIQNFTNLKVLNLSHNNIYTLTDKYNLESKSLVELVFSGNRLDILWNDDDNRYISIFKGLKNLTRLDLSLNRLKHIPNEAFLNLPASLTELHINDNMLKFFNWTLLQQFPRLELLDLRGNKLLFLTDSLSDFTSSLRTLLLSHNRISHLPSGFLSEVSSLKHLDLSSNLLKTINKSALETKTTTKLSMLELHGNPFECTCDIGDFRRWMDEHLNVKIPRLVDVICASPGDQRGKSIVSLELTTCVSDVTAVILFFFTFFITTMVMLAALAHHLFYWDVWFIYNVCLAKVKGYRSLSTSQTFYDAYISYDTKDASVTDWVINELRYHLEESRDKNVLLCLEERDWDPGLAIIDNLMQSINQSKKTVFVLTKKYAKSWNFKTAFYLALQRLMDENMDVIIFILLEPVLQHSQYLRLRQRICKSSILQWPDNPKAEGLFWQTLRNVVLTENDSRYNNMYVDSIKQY
Source text: (§1) For TLR8 and TLR7 activity testing, HEK-Blue human TLR8 or TLR7 cells (Invivogen, San Diego, Calif., USA) are used, respectively. These cells are designed for studying the stimulation of human TLR8 or TLR7 by monitoring the activation of NF-κB. A SEAP (secreted embryonic alkaline phosphatase) reporter gene is placed under the control of the IFN-b minimal promoter fused to five NF-κB and AP-1-binding sites. Therefore the reporter expression is regulated by the NF-κB promoter upon stimulation of human TLR8 or TLR7 for 20 hours. The cell culture supernatant SEAP reporter activity was determined using Quanti Blue kit (Invivogen, San Diego, Calif., USA) at a wavelength of 640 nm, a detection medium that turns purple/blue in the presence of alkaline phosphatase. EC50 values were determined using Activity Base analysis (ID Business Solution, Limited).

[2] = biological target: T2, human TLR7 (Homo sapiens, UniProt Q9NYK1); assay: HEK-Blue human TLR7 cells NF-κB SEAP reporter assay; type: cell-based; conditions: stimulation for 20 hours, Quanti Blue 640 nm
T2 construct: host or cells: HEK-Blue human TLR7 cells (HEK293-derived reporter line)
T2 sequence (Q9NYK1 27-1049): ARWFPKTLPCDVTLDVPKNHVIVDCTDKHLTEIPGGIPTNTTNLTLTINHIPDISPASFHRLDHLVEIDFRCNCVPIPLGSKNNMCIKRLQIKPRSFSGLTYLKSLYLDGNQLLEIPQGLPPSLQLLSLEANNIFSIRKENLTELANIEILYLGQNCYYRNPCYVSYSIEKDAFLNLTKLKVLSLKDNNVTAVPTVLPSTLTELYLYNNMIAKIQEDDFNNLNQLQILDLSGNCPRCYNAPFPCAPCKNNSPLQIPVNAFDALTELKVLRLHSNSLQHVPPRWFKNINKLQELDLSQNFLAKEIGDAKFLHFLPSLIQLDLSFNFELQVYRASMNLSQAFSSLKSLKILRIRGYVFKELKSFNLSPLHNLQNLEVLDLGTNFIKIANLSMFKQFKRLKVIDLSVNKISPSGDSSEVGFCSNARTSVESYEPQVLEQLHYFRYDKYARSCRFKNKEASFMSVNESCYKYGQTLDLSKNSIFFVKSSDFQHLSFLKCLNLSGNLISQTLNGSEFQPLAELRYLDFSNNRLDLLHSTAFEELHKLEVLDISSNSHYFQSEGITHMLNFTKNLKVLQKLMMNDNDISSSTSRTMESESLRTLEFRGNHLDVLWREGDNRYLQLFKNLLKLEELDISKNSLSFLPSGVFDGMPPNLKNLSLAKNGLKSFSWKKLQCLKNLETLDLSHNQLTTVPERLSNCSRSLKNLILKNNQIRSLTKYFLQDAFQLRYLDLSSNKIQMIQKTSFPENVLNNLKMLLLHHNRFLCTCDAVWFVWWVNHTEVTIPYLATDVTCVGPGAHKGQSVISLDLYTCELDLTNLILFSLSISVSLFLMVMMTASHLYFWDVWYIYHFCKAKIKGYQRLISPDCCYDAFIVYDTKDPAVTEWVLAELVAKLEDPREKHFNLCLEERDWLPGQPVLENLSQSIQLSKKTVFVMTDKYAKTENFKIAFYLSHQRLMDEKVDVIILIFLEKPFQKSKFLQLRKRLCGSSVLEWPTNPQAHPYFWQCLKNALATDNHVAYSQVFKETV
Source text: as §1

EC50 [1] [nM]	EC50 [2] [nM]	SMILES
10	> 100000	CCCN(CCC)C(=O)C1=Cc2ccc(C(=O)N[C@@H]3CCN(c4ccccc4)C3)cc2N=C(N)C1 [Example 28, 2-Amino-N8-[(3R)-1-phenylpyrrolidin-3-yl]-N4,N4-dipropyl-3H-1-benzazepine-4,8-dicarboxamide]
2	7900	CCCN(CCC)C(=O)C1=Cc2ccc(C(=O)N[C@H]3C[C@@H]3c3ccccc3)cc2N=C(N)C1 [Example 1, 2-Amino-N8-[(1S,2R)-2-phenylcyclopropyl]-N4,N4-dipropyl-3H-1-benzazepine-4,8-dicarboxamide]
28	50000	CCCN(CCC)C(=O)C1=Cc2ccc(C(=O)NC(C)(C)C)cc2N=C(N)C1 [Example 16, 2-Amino-N8-tert-butyl-N4,N4-dipropyl-3H-1-benzazepine-4,8-dicarboxamide]
4	34000	CCCN(CCC)C(=O)C1=Cc2ccc(C(=O)NC3CCCCC3)cc2N=C(N)C1 [Example 4, 2-Amino-N8-cyclohexyl-N4,N4-dipropyl-3H-1-benzazepine-4,8-dicarboxamide]
10	> 100000	CCCN(CCC)C(=O)C1=Cc2ccc(C(=O)N[C@H]3CCN(c4ccccc4)C3)cc2N=C(N)C1 [Example 25, 2-Amino-N8-[(3S)-1-phenylpyrrolidin-3-yl]-N4,N4-dipropyl-3H-1-benzazepine-4,8-dicarboxamide]
